Test system: MV-4-11 cells
Experiment: Gene expression microarray analysis (Affymetrix PrimeView) and GSEA
Format: cell-based, human
Design: RFU PODN (11730768_x_at) / Fold change /veh PODN (11730768_x_at) / RFU LINC00158 (11744669_a_at) / Fold change /veh LINC00158 (11744669_a_at) / RFU DUSP10 (11751237_a_at) / Fold change /veh DUSP10 (11751237_a_at) / RFU ID3 (11757404_x_at) / Fold change /veh ID3 (11757404_x_at) / RFU PLEKHG5 (11737974_s_at) / Fold change /veh PLEKHG5 (11737974_s_at) / RFU LRRC4B (11730491_at) / Fold change /veh LRRC4B (11730491_at) / RFU GIMAP4 (11747438_a_at) / Fold change /veh GIMAP4 (11747438_a_at) / RFU KRT8 (11758183_x_at) / Fold change /veh KRT8 (11758183_x_at) / RFU CNN1 (11734310_a_at) / Fold change /veh CNN1 (11734310_a_at) / RFU VPS37D (11726825_at) / Fold change /veh VPS37D (11726825_at) / RFU C10orf10 (11716522_x_at) / Fold change /veh C10orf10 (11716522_x_at) / RFU KIR2DL2 /// KIR2DL4 /// KIR2DL5A /// KIR2DL5B /// KIR2DS1 /// KIR2DS2 /// KIR2DS3 /// KIR2DS4 /// KIR3DL3 /// KIR3DL3 /// KIR3DS1 (11738374_at) / Fold change /veh KIR2DL2 /// KIR2DL4 /// KIR2DL5A /// KIR2DL5B /// KIR2DS1 /// KIR2DS2 /// KIR2DS3 /// KIR2DS4 /// KIR3DL3 /// KIR3DL3 /// KIR3DS1 (11738374_at) / RFU C1QL1 (11718748_at) / Fold change /veh C1QL1 (11718748_at) / RFU TMPRSS4 (11747572_a_at) / Fold change /veh TMPRSS4 (11747572_a_at) / RFU HAMP (11756126_x_at) / Fold change /veh HAMP (11756126_x_at) / RFU RNFT2 (11725882_a_at) / Fold change /veh RNFT2 (11725882_a_at) / RFU NR4A2 (11747474_a_at) / Fold change /veh NR4A2 (11747474_a_at) / RFU ABCC12 (11746883_a_at) / Fold change /veh ABCC12 (11746883_a_at) / RFU TMEM136 (11760407_x_at) / Fold change /veh TMEM136 (11760407_x_at) / RFU CLDN22 /// WWC2 (11732394_at) / Fold change /veh CLDN22 /// WWC2 (11732394_at) / RFU HLA-DPB1 (11760878_x_at) / Fold change /veh HLA-DPB1 (11760878_x_at) / RFU SPINT1 (11716480_a_at) / Fold change /veh SPINT1 (11716480_a_at) / RFU GAP43 (11754022_s_at) / Fold change /veh GAP43 (11754022_s_at) / RFU A4GNT (11735810_at) / Fold change /veh A4GNT (11735810_at) / RFU PRB3 (11715151_x_at) / Fold change /veh PRB3 (11715151_x_at) / RFU TUBB4B (11761932_at) / Fold change /veh TUBB4B (11761932_at) / RFU CAPN14 (11732068_a_at) / Fold change /veh CAPN14 (11732068_a_at) / RFU TMCC2 (11721928_a_at) / Fold change /veh TMCC2 (11721928_a_at) / RFU IRGQ (11745062_a_at) / Fold change /veh IRGQ (11745062_a_at) / RFU FAM174B (11720279_a_at) / Fold change /veh FAM174B (11720279_a_at) / RFU TMPRSS4 (11748680_a_at) / Fold change /veh TMPRSS4 (11748680_a_at) / RFU FAM212B (11763350_a_at) / Fold change /veh FAM212B (11763350_a_at) / RFU PLEKHG5 (11743358_a_at) / Fold change /veh PLEKHG5 (11743358_a_at) / RFU ZSCAN30 (11745921_a_at) / Fold change /veh ZSCAN30 (11745921_a_at) / RFU CMKLR1 (11741424_a_at) / Fold change /veh CMKLR1 (11741424_a_at) / RFU LOC101060620 /// MAPK8IP1 (11723275_at) / Fold change /veh LOC101060620 /// MAPK8IP1 (11723275_at) / RFU SPTSSB (11747773_x_at) / Fold change /veh SPTSSB (11747773_x_at) / RFU PRSS12 (11739890_at) / Fold change /veh PRSS12 (11739890_at) / RFU BIN1 (11741810_x_at) / Fold change /veh BIN1 (11741810_x_at) / RFU WNT11 (11732464_a_at) / Fold change /veh WNT11 (11732464_a_at) / RFU C10orf10 (11716521_a_at) / Fold change /veh C10orf10 (11716521_a_at) / RFU C5orf56 (11738089_at) / Fold change /veh C5orf56 (11738089_at) / RFU CYB561 (11721691_x_at) / Fold change /veh CYB561 (11721691_x_at) / RFU ANKRD19P (11752326_a_at) / Fold change /veh ANKRD19P (11752326_a_at) / RFU OR2T12 /// OR2T33 /// OR2T8 (11738714_s_at) / Fold change /veh OR2T12 /// OR2T33 /// OR2T8 (11738714_s_at) / RFU VCAN (11748164_a_at) / Fold change /veh VCAN (11748164_a_at) / RFU JSRP1 (11732532_at) / Fold change /veh JSRP1 (11732532_at) / RFU KRTAP10-11 (11738290_x_at) / Fold change /veh KRTAP10-11 (11738290_x_at) / RFU MYO3A (11730013_a_at) / Fold change /veh MYO3A (11730013_a_at) / RFU EBF3 (11725865_a_at) / Fold change /veh EBF3 (11725865_a_at) / RFU CAMK2N1 (11719241_x_at) / Fold change /veh CAMK2N1 (11719241_x_at) / RFU C5orf56 (11738088_a_at) / Fold change /veh C5orf56 (11738088_a_at) / RFU OLFML3 (11715873_a_at) / Fold change /veh OLFML3 (11715873_a_at) / RFU LOC100653217 /// NTM (11731650_a_at) / Fold change /veh LOC100653217 /// NTM (11731650_a_at) / RFU MAPK11 (11762145_a_at) / Fold change /veh MAPK11 (11762145_a_at) / RFU FIZ1 (11724087_x_at) / Fold change /veh FIZ1 (11724087_x_at) / RFU OASL (11726364_x_at) / Fold change /veh OASL (11726364_x_at) / RFU SOX15 (11748057_x_at) / Fold change /veh SOX15 (11748057_x_at) / RFU CD79A (11719716_a_at) / Fold change /veh CD79A (11719716_a_at) / RFU HIST1H1D (11736915_at) / Fold change /veh HIST1H1D (11736915_at) / RFU CASKIN2 (11723855_a_at) / Fold change /veh CASKIN2 (11723855_a_at) / RFU LOC730098 (11760151_x_at) / Fold change /veh LOC730098 (11760151_x_at) / RFU OR4N2 (11742367_at) / Fold change /veh OR4N2 (11742367_at) / RFU PRRT2 (11749266_a_at) / Fold change /veh PRRT2 (11749266_a_at) / RFU SNX32 (11753110_a_at) / Fold change /veh SNX32 (11753110_a_at) / RFU CDHR5 (11726645_a_at) / Fold change /veh CDHR5 (11726645_a_at) / RFU RCAN1 (11760418_a_at) / Fold change /veh RCAN1 (11760418_a_at) / RFU FAM167A (11723789_a_at) / Fold change /veh FAM167A (11723789_a_at) / RFU FAM26E (11764081_at) / Fold change /veh FAM26E (11764081_at) / RFU ISYNA1 (11749810_s_at) / Fold change /veh ISYNA1 (11749810_s_at) / RFU ACY1 (11761880_at) / Fold change /veh ACY1 (11761880_at) / RFU 11764098_at / Fold change /veh 11764098_at / RFU SAMD14 (11745864_x_at) / Fold change /veh SAMD14 (11745864_x_at) / RFU NPB (11741838_a_at) / Fold change /veh NPB (11741838_a_at) / RFU TMPRSS6 (11731388_a_at) / Fold change /veh TMPRSS6 (11731388_a_at) / RFU KRTAP10-2 (11738614_at) / Fold change /veh KRTAP10-2 (11738614_at) / RFU ARHGAP8 /// PRR5-ARHGAP8 (11727945_x_at) / Fold change /veh ARHGAP8 /// PRR5-ARHGAP8 (11727945_x_at) / RFU KRTAP5-7 /// NADSYN1 (11734609_at) / Fold change /veh KRTAP5-7 /// NADSYN1 (11734609_at) / RFU RASL12 (11751679_a_at) / Fold change /veh RASL12 (11751679_a_at) / RFU CDKN2B (11736163_a_at) / Fold change /veh CDKN2B (11736163_a_at) / RFU PRF1 (11729649_at) / Fold change /veh PRF1 (11729649_at) / RFU, ZNF638 /// ZNF638-IT1 / Fold change vs veh, ZNF638 /// ZNF638-IT1 / RFU, PANK3 / Fold change vs veh, PANK3 / RFU, SH3YL1 / Fold change vs veh, SH3YL1 / RFU, ZEB2 / Fold change vs veh, ZEB2 / RFU, NRIP1 / Fold change vs veh, NRIP1 / RFU, PTTG1IP / Fold change vs veh, PTTG1IP / RFU, CAPN2 / Fold change vs veh, CAPN2 / RFU, MED14 / Fold change vs veh, MED14 / RFU, SNORA58 / Fold change vs veh, SNORA58 / RFU, C1orf63 / Fold change vs veh, C1orf63 / RFU, LRRFIP1 / Fold change vs veh, LRRFIP1 / RFU, NDUFAF7 / Fold change vs veh, NDUFAF7 / RFU, SLC12A2 / Fold change vs veh, SLC12A2 / RFU, IBTK / Fold change vs veh, IBTK / RFU, ESF1 / Fold change vs veh, ESF1 / Fold change vs veh, TMEM50B / RFU, TAOK1 / Fold change vs veh, TAOK1 / RFU, ACBD3 / Fold change vs veh, ACBD3 / RFU, TMA16 / Fold change vs veh, TMA16 / RFU, RWDD3 / Fold change vs veh, RWDD3 / RFU, BCAT1 / Fold change vs veh, BCAT1 / RFU, EDEM3 / Fold change vs veh, EDEM3 / RFU, TMEM33 / Fold change vs veh, TMEM33 / RFU, WDR75 / Fold change vs veh, WDR75 / RFU, AHCTF1 / Fold change vs veh, AHCTF1 / RFU, TFRC / Fold change vs veh, TFRC / RFU, ZDHHC17 / Fold change vs veh, ZDHHC17 / RFU, NOM1 / Fold change vs veh, NOM1 / RFU, ARL8B / Fold change vs veh, ARL8B / RFU, ZBTB11 / Fold change vs veh, ZBTB11 / RFU, TAMM41 / Fold change vs veh, TAMM41 / RFU, KIAA1704 /// LOC100996395 / Fold change vs veh, KIAA1704 /// LOC100996395 / RFU, ING1 / Fold change vs veh, ING1 / RFU, TRMT61B / Fold change vs veh, TRMT61B / RFU, FUBP3 / Fold change vs veh, FUBP3 / RFU, TP53 / Fold change vs veh, TP53 / RFU, TNKS2 / Fold change vs veh, TNKS2 / RFU, ZFP14 / Fold change vs veh, ZFP14 / RFU, ACTR2 / Fold change vs veh, ACTR2 / RFU, PPP3R1 / Fold change vs veh, PPP3R1 / RFU, PIK3R1 / Fold change vs veh, PIK3R1 / RFU, HNRNPA1 / Fold change vs veh, HNRNPA1 / RFU, RNF170 / Fold change vs veh, RNF170 / RFU, ZNF28 / Fold change vs veh, ZNF28 / RFU, RNGTT / Fold change vs veh, RNGTT / RFU, OGT / Fold change vs veh, OGT / RFU, BRD1 / Fold change vs veh, BRD1 / RFU, MARS / Fold change vs veh, MARS / RFU, ZNF655 / Fold change vs veh, ZNF655 / RFU, FAHD1 / Fold change vs veh, FAHD1 / RFU, BDP1 / Fold change vs veh, BDP1 / RFU, LRRCC1 / Fold change vs veh, LRRCC1 / RFU, ARID1A / Fold change vs veh, ARID1A / RFU, ZNF146 / Fold change vs veh, ZNF146 / RFU, ZNF330 / Fold change vs veh, ZNF330 / RFU, GPN3 / Fold change vs veh, GPN3 / RFU, C9orf123 / Fold change vs veh, C9orf123 / RFU, N4BP2L2 / Fold change vs veh, N4BP2L2 / RFU, ARFIP1 / Fold change vs veh, ARFIP1 / RFU, FAM179B / Fold change vs veh, FAM179B / RFU, BCL10 / Fold change vs veh, BCL10 / RFU, UHRF1BP1L / Fold change vs veh, UHRF1BP1L / RFU, BET1 / Fold change vs veh, BET1 / RFU, CNOT2 / Fold change vs veh, CNOT2 / RFU, ZNF268 / Fold change vs veh, ZNF268 / Fold change vs veh, ZNF507 / RFU, DGCR2 / Fold change vs veh, DGCR2 / RFU, WDSUB1 / Fold change vs veh, WDSUB1 / Fold change vs veh, HSP90B1 /// MIR3652 / RFU, ADSS / Fold change vs veh, ADSS / RFU, GK / Fold change vs veh, GK / RFU, ZNF148 / Fold change vs veh, ZNF148 / RFU, TAF9 / Fold change vs veh, TAF9 / RFU, SLC1A5 / Fold change vs veh, SLC1A5 / RFU, SLMO2 / Fold change vs veh, SLMO2 / RFU, ABCC4 / Fold change vs veh, ABCC4 / RFU, LOC101060439 /// RAP1B / Fold change vs veh, LOC101060439 /// RAP1B / RFU, RFX7 / Fold change vs veh, RFX7 / RFU, GTPBP10 / Fold change vs veh, GTPBP10 / RFU, CNEP1R1 / Fold change vs veh, CNEP1R1 / RFU, BIVM-ERCC5 /// ERCC5 / Fold change vs veh, BIVM-ERCC5 /// ERCC5 / RFU, ILF3 / Fold change vs veh, ILF3 / RFU 11762660_at / Fold change /veh 11762660_at / RFU VCAN (11757783_s_at) / Fold change /veh VCAN (11757783_s_at) / RFU DDX43 (11728927_at) / Fold change /veh DDX43 (11728927_at) / RFU KRT8 (11758188_x_at) / Fold change /veh KRT8 (11758188_x_at) / RFU NKD1 (11759106_at) / Fold change /veh NKD1 (11759106_at) / RFU SRD5A1 (11742802_a_at) / Fold change /veh SRD5A1 (11742802_a_at) / RFU TPSAB1 /// TPSB2 (11721975_s_at) / Fold change /veh TPSAB1 /// TPSB2 (11721975_s_at) / RFU GSTM3 (11746129_a_at) / Fold change /veh GSTM3 (11746129_a_at) / RFU IL23R (11737362_x_at) / Fold change /veh IL23R (11737362_x_at) / RFU TMEM51 (11727254_a_at) / Fold change /veh TMEM51 (11727254_a_at) / RFU PIWIL2 (11732686_x_at) / Fold change /veh PIWIL2 (11732686_x_at) / RFU ORM1 (11744905_x_at) / Fold change /veh ORM1 (11744905_x_at) / RFU CCDC152 (11743942_at) / Fold change /veh CCDC152 (11743942_at) / RFU ECM1 (11717891_a_at) / Fold change /veh ECM1 (11717891_a_at) / RFU IL23R (11748794_a_at) / Fold change /veh IL23R (11748794_a_at) / RFU TNFAIP8L3 (11732012_x_at) / Fold change /veh TNFAIP8L3 (11732012_x_at) / RFU MBOAT4 (11741988_at) / Fold change /veh MBOAT4 (11741988_at) / RFU 11764193_at / Fold change /veh 11764193_at / RFU TMEM53 (11763286_at) / Fold change /veh TMEM53 (11763286_at) / RFU MAGEB2 (11727129_at) / Fold change /veh MAGEB2 (11727129_at) / RFU TMEM200A (11744735_a_at) / Fold change /veh TMEM200A (11744735_a_at) / RFU CCDC152 (11751479_a_at) / Fold change /veh CCDC152 (11751479_a_at) / RFU FAM211A (11726209_a_at) / Fold change /veh FAM211A (11726209_a_at) / RFU RGS16 (11746705_a_at) / Fold change /veh RGS16 (11746705_a_at) / RFU VCAN (11755009_s_at) / Fold change /veh VCAN (11755009_s_at) / RFU RHOB (11743442_s_at) / Fold change /veh RHOB (11743442_s_at) / RFU RGS16 (11720943_a_at) / Fold change /veh RGS16 (11720943_a_at) / RFU RGS16 (11720944_at) / Fold change /veh RGS16 (11720944_at) / RFU, VPS4B / Fold change vs veh, VPS4B / RFU, CREB1 / Fold change vs veh, CREB1 / RFU, DNAJC13 / Fold change vs veh, DNAJC13 / RFU, GNAQ / Fold change vs veh, GNAQ / RFU, CDK5R1 / Fold change vs veh, CDK5R1 / RFU, ZRANB3 / Fold change vs veh, ZRANB3 / RFU, CUL4A / Fold change vs veh, CUL4A / RFU, CCNY / Fold change vs veh, CCNY / RFU, UFL1 / Fold change vs veh, UFL1 / RFU, COG3 / Fold change vs veh, COG3 / RFU, DIAPH2 / Fold change vs veh, DIAPH2 / RFU, SKA2 / Fold change vs veh, SKA2 / RFU, AFF3 / Fold change vs veh, AFF3 / RFU, LMF1 / Fold change vs veh, LMF1 / RFU, IPO11 / Fold change vs veh, IPO11 / RFU, DFFB / Fold change vs veh, DFFB / RFU, FOXP1 / Fold change vs veh, FOXP1 / RFU, CARD8 / Fold change vs veh, CARD8 / RFU, STRN3 / Fold change vs veh, STRN3 / RFU, ADK / Fold change vs veh, ADK / RFU, RASSF2 / Fold change vs veh, RASSF2 / RFU, WIPF1 / Fold change vs veh, WIPF1 / RFU, LARP1B / Fold change vs veh, LARP1B / RFU, RASA1 / Fold change vs veh, RASA1 / RFU, RB1 / Fold change vs veh, RB1 / RFU, PPFIA1 / Fold change vs veh, PPFIA1 / RFU, MAT2A / Fold change vs veh, MAT2A / RFU, CCT5 / Fold change vs veh, CCT5 / RFU, WDR92 / Fold change vs veh, WDR92 / RFU, CUX1 / Fold change vs veh, CUX1 / RFU, TTC7A / Fold change vs veh, TTC7A / RFU, TMEM135 / Fold change vs veh, TMEM135 / RFU, DEPTOR / Fold change vs veh, DEPTOR / RFU, CPM / Fold change vs veh, CPM / RFU, DNAJB6 / Fold change vs veh, DNAJB6 / RFU, CACNA2D3 / Fold change vs veh, CACNA2D3 / RFU, DTX4 / Fold change vs veh, DTX4 / RFU, TFCP2 / Fold change vs veh, TFCP2 / RFU, GMCL1 /// GMCL1P1 / Fold change vs veh, GMCL1 /// GMCL1P1 / RFU, AEBP2 / Fold change vs veh, AEBP2 / RFU, SNHG1 /// SNORD22 /// SNORD25 /// SNORD26 /// SNORD27 /// SNORD28 /// SNORD29 /// SNORD31 / Fold change vs veh, SNHG1 /// SNORD22 /// SNORD25 /// SNORD26 /// SNORD27 /// SNORD28 /// SNORD29 /// SNORD31 / Fold change (Aza/veh), C12orf56 (ProbeSet 11735607_a_at) / Fold change (ACY-1035/veh), C12orf56 (ProbeSet 11735607_a_at) / Fold change (Aza/veh), FGFR1OP (ProbeSet 11751329_s_at) / Fold change (ACY-1035/veh), FGFR1OP (ProbeSet 11751329_s_at) / Fold change (Aza/veh), VPS36 (ProbeSet 11739960_a_at) / Fold change (ACY-1035/veh), VPS36 (ProbeSet 11739960_a_at) / RFU SYPL1 (11715823_x_at) / Fold change /veh SYPL1 (11715823_x_at) / RFU IGFBP7 (11715501_s_at) / Fold change /veh IGFBP7 (11715501_s_at) / RFU REEP3 (11722064_at) / Fold change /veh REEP3 (11722064_at) / RFU IGLL1 (11728026_x_at) / Fold change /veh IGLL1 (11728026_x_at): dose or concentration left out as unconfirmed
Conditions: MV-4-11 cells, 48 hours

Nc1ccc(-c2cccs2)cc1NC(=O)c1ccc2c(c1)cc(C1CC1)n2CCN1CCOCC1 [ACY-1035]
Fold change /veh IRGQ (11745062_a_at): 0.91

Source: publication PMC5218480 (PLoS ONE, 2017)
